Data published in patent publication USRE40912E1, “Process for isolation, purification, and recrystallization of lutein from saponified marigold oleoresin and uses thereof” (The Catholic University of America, priority 1994, dated 2009).

Key:
[1] = human study of oral lutein dose, plasma carotenoid profile; format: in vivo; conditions: oral 10 mg lutein dose as suspension in olive oil (ethanol, α-tocopherol, polysorbate 80), spread on a bagel
Method: Carotenoids are considered among the fat soluble nutrients and are usually associated with the lipoprotein fractions of human blood. […] In the following, the procedure employed for the preparation of a small batch (100 dose, each 10 mg) of purified lutein is described.
Purified lutein from marigold flowers extract (1 g) was added to absolute alcohol (75 mL). To this solution α-tocopherol (50 mg) and food grade polysorbate 80 (an emulsifier, 4 g) was added and the mixture was sonicated for 10 minutes. The addition of α-tocopherol (0.01% by weight) was to stabilize lutein and prevent this compound from possible oxidation during long term storage. The above suspension was then mixed with 350 g of light and mild olive oil (saturated fat/polyunsaturated fat=2/1) and the mixture was sonicated for 5 minutes. […] 7 mL aliquots of this suspension was shown by spectrophotometric analysis to contain 10 mg of lutein. At various intervals, the stability and the purity of lutein suspension in the olive oil was determined by spectrophotometric and HPLC analysis. […] In one study each 7 mL aliquot of the olive oil (containing 10 mg lutein) was spread on a bagel prior to ingestion. Alternatively, this small volume of oil can be readily taken with other foods. […]

[2] = stability of lutein suspension in olive oil by spectrophotometric and HPLC analysis; format: physicochemical; conditions: suspension in olive oil with α-tocopherol and polysorbate 80, stored under nitrogen in a refrigerator
Method: Purified lutein from marigold flowers extract (1 g) was added to absolute alcohol (75 mL). To this solution α-tocopherol (50 mg) and food grade polysorbate 80 (an emulsifier, 4 g) was added and the mixture was sonicated for 10 minutes. The addition of α-tocopherol (0.01% by weight) was to stabilize lutein and prevent this compound from possible oxidation during long term storage. The above suspension was then mixed with 350 g of light and mild olive oil (saturated fat/polyunsaturated fat=2/1) and the mixture was sonicated for 5 minutes. […] 7 mL aliquots of this suspension was shown by spectrophotometric analysis to contain 10 mg of lutein. At various intervals, the stability and the purity of lutein suspension in the olive oil was determined by spectrophotometric and HPLC analysis. […] In one study each 7 mL aliquot of the olive oil (containing 10 mg lutein) was spread on a bagel prior to ingestion. Alternatively, this small volume of oil can be readily taken with other foods. Although this preparation of lutein dose is appropriate for conducting human studies with a limited number of subjects, other preparations of this compound into tablets or capsules can be accomplished. The formulation of β-carotene into tablets and capsules which has been developed by Hoffmann-La Roche Inc. (Nutley, N.J.), may also be found suitable for lutein with some minor modifications.

## CC1=C[C@H](O)CC(C)(C)[C@H]1/C=C/C(C)=C/C=C/C(C)=C/C=C/C=C(C)/C=C/C=C(C)/C=C/C1=C(C)C[C@@H](O)CC1(C)C [lutein, (3R,3′R,6′R)-β,ε-Carotene-3,3′-diol]
[1]
  absorption of lutein by the subjects as determined from analysis of their plasma carotenoid profile: excellent absorption
[2]
  stability of lutein suspension in olive oil: stable for up to one month
